From paper PMC2902621 (Archives of biochemistry and biophysics, 2010)
pKd: −log10 of the molar value.

Target: cytochrome c peroxidase (CcP) (Saccharomyces cerevisiae, UniProt P00431, R115A/T120I/D219G/W258F)
Assay: UV-visible optical titration of ferric enzyme
Assay type: binding

Chain of cytochrome c peroxidase (CcP) (P00431 68-361 R115A/T120I/D219G/W258F): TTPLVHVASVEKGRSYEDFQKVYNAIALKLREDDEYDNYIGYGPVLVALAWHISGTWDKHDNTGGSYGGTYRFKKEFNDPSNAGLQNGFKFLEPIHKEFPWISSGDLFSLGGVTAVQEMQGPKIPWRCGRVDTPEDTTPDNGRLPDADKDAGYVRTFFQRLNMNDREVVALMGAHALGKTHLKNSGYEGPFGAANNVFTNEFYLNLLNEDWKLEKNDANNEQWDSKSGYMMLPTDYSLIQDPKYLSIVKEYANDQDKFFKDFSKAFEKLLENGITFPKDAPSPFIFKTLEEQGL

N=C(N)NO [NHG, N-hydroxyguanidine]
pKd: 2.47
